Results on 8 compounds are retold here after article PMC8584173, “The Cytotoxic Effect of Copper (II) Complexes with Halogenated 1,3-Disubstituted Arylthioureas on Cancer and Bacterial Cells” (International Journal of Molecular Sciences, 2021).

Experiment [1] deals with S. epidermidis ATCC 35984. The experiment is described as follows: MIC, twofold serial microdilution. Type of experiment: cell-based, Staphylococcus epidermidis. As to conditions: S. epidermidis ATCC 35984, 18 h, 35 °C. How it is done:
(§1) The antimicrobial activity of the compounds was tested on Gram-positive bacteria (Staphylococcus aureus NCTC 4163, Staphylococcus aureus ATCC 25923, Staphylococcus aureus ATCC 6538, Staphylococcus aureus ATCC 29213, Staphylococcus epidermidis ATCC 12228, Staphylococcus epidermidis ATCC 35984), Gram-negative rods (Escherichia coli ATCC 10538, Escherichia coli ATCC 25922, Pseudomonas aeruginosa ATCC 15442, Pseudomonas aeruginosa ATCC 27863) and yeasts (Candida albicans ATCC 10231, Candida albicans ATCC 90028, Candida parapsilosis ATCC 22019). Hospital methicillin-resistant strains of Staphylococcus aureus and Staphylococcus epidermidis were obtained from the collection of the Department of Pharmaceutical Microbiology, Medical University of Warsaw, Poland.
(§2) Antifungal activities were assessed using Mueller–Hinton agar + 2% glucose and 0.5 µg/mL methylene blue dye medium. Sterile filter paper discs (9 mm diameter, Whatman Number 3 chromatography paper) were dripped with tested compound solutions (in dimethylsulfoxide, DMSO) to load 400 μg of a given compound per disc. Dry discs were placed on the surface of appropriate agar medium. The results (diameter of the growth inhibition zone) were read after 18 h of incubation at 35 °C. Minimal inhibitory concentration (MIC) was tested by the twofold serial microdilution method (in 96-well microtiter plates) using Mueller–Hinton broth medium (Beckton Dickinson) for bacteria or RPMI-1640 medium for Candida species, according to CLSI guidelines. The stock solution of tested agent was prepared in DMSO and diluted in sterile water. […] The final inoculum of all studied microorganisms was 10^5 CFU/ mL^−1 (colony forming units per ml). Minimal inhibitory concentrations (the lowest concentration of a tested agent that prevents visible growth of a microorganism) were read after 18 h (bacteria) or 24 h (yeasts) of incubation at 35 °C.

Experiment [2] deals with S. epidermidis ATCC 12228. The experiment is described as follows: MIC, twofold serial microdilution. It is filed as cell-based, Staphylococcus epidermidis. To be noted: S. epidermidis ATCC 12228, 18 h, 35 °C. Here is the method:
as §1, §2
In general terms: Broth dilution looks for growth in wells or tubes with falling amounts of substance.

Experiment [3] concerns SW480 (human primary colon cancer). Put plainly: MTT cytotoxicity assay, SW480. It is filed as cell-based. To be noted: SW480, 72 h. How it is done: The human primary (SW480), metastatic (SW620) colon cancer, metastatic prostate cancer (PC3) and human immortal keratinocyte (HaCaT) cell lines were purchased from the American Type Culture Collection (ATCC, Rockville, USA). The cells were cultured in medium according to protocols (MEM for SW480 and SW620, RPMI 1640 for PC3 and DMEM for HaCaT cells) supplemented with 10% fetal bovine serum (FBS), penicillin (100 U/mL) and streptomycin (100 μg/mL) and cultured in 37 °C/ 5% CO2 humidified incubator. The cells were cultured until appropriate confluence was achieved (80–90%). Next, they were harvested by treatment with 0.25% trypsin (Gibco Life Technologies, USA) and used for studies.
Cells without studied compounds in medium were used as a control.
The cell viability was assessed by determination of MTT salt (3-(4,5-dimethylthiazol-2-yl)-2,5-diphenyltetrazolium bromide) conversion by mitochondrial dehydrogenase. MTT assay was performed as previously described. Experiments were repeated three times. Cell viability was presented as a percentage of MTT reduction in the treated cells versus the control cells. Number of viable cells cultured without studied compounds was assumed to be 100%. Decreased relative MTT level means decreased cell viability. Thiourea complexes with the highest cytotoxic potential assessed by MTT determination (with the lowest IC50) were chosen for subsequent assessments of cytotoxicity mechanisms.

In experiment [4] the test system is S. aureus ATCC 25923. Put plainly: MIC, twofold serial microdilution. Type of experiment: cell-based, Staphylococcus aureus. To be noted: S. aureus ATCC 25923, 18 h, 35 °C. Here is the method: as §1, §2
Experiment [5] deals with S. aureus ATCC 6538. Put plainly: MIC, twofold serial microdilution. As to conditions: S. aureus ATCC 6538, 18 h, 35 °C. It is filed as cell-based, Staphylococcus aureus. How it is done:
as §1, §2

Experiment [6] relates to S. aureus ATCC 29213. The experiment is described as follows: MIC, twofold serial microdilution. It is filed as cell-based, Staphylococcus aureus. As to conditions: S. aureus ATCC 29213, 18 h, 35 °C. How it is done: as §1, §2
Experiment [7] deals with S. aureus NCTC 4163. The experiment is described as follows: MIC, twofold serial microdilution. Type of experiment: cell-based, Staphylococcus aureus. To be noted: S. aureus NCTC 4163, 18 h, 35 °C. How it is done:
as §1, §2

In experiment [8] the test system is S. epidermidis 432. The experiment is described as follows: MIC, hospital MRSE strain. It is filed as cell-based, Staphylococcus epidermidis. To be noted: hospital MRSE S. epidermidis 432. Here is the method: as §1, §2
Experiment [9] concerns S. epidermidis 510. Put plainly: MIC, hospital MRSE strain. It is filed as cell-based, Staphylococcus epidermidis. To be noted: hospital MRSE S. epidermidis 510. How it is done:
as §1, §2

For experiment [10], the system named is S. epidermidis 433. Put plainly: MIC, hospital MRSE strain. It is filed as cell-based, Staphylococcus epidermidis. To be noted: hospital MRSE S. epidermidis 433. How it is done:
as §1, §2

For experiment [11], the system named is S. epidermidis 420. Put plainly: MIC, hospital MRSE strain. To be noted: hospital MRSE S. epidermidis 420. It is filed as cell-based, Staphylococcus epidermidis. How it is done:
as §1, §2

By MIC is commonly meant the least concentration at which growth counts as inhibited. A word on the IC50: it is the midpoint of a concentration-inhibition curve. A low value points to greater potency.

In the case of `O=[N+]([O-])c1cc([N+]2=C(Nc3ccccc3Br)[S][Cu-2]23[S]C(Nc2ccccc2Br)=[N+]3c2ccc(Cl)c([N+](=O)[O-])c2)ccc1Cl` [Compound 1, Copper (II) complex with 1-(2-bromophenyl)-3-(4-chloro-3-nitrophenyl)thiourea], the MIC in [1] amounted to 8 µg/mL; in experiment [2], 16 µg/mL; in experiment [4], 8 µg/mL; in [5] it was 8 µg/mL; in [6] it was 8 µg/mL; in experiment [7], 8 µg/mL. For the same compound, the MIC in experiment [8] is 8 µg/mL; in experiment [9], 8 µg/mL; in experiment [10] it was 4 µg/mL; in [11], 4 µg/mL. This compound came in with an IC50 in experiment [3] of 4.7 ± 0.3 µM.

On to `O=[N+]([O-])c1cc([N+]2=C(Nc3cccc(Br)c3)[S][Cu-2]23[S]C(Nc2cccc(Br)c2)=[N+]3c2ccc(Cl)c([N+](=O)[O-])c2)ccc1Cl` [Compound 2, Copper (II) complex with 1-(3-bromophenyl)-3-(4-chloro-3-nitrophenyl)thiourea], for which the MIC in experiment [1], in [2], in experiment [4], in experiment [5], in experiment [6] and in [7] was 16 µg/mL throughout. The MIC in experiment [8], in [9], in [10] and in experiment [11] was 8 µg/mL each time. For the same compound, it took 24.3 ± 2.6 µM to reach half-maximal inhibition in experiment [3] (IC50).

For `O=[N+]([O-])c1cc([N+]2=C(Nc3ccc(Br)cc3)[S][Cu-2]23[S]C(Nc2ccc(Br)cc2)=[N+]3c2ccc(Cl)c([N+](=O)[O-])c2)ccc1Cl` [Compound 3, Copper (II) complex with 1-(4-bromophenyl)-3-(4-chloro-3-nitrophenyl)thiourea], the MIC in experiment [1] came out at 16 µg/mL; in experiment [2] it was 16 µg/mL; in experiment [4] it was 8 µg/mL; in experiment [5], 8 µg/mL; in experiment [6], 16 µg/mL; in [7], 8 µg/mL. The MIC in experiment [8] worked out at 4 µg/mL; in experiment [9], 4 µg/mL; in experiment [10], 4 µg/mL; in experiment [11], 8 µg/mL. For the same compound, the IC50 in [3] was determined as 11.9 ± 2.1 µM.

For the compound `O=[N+]([O-])c1cc([N+]2=C(Nc3ccc(F)c(Cl)c3)[S][Cu-2]23[S]C(Nc2ccc(F)c(Cl)c2)=[N+]3c2ccc(Cl)c([N+](=O)[O-])c2)ccc1Cl` [Compound 4, Copper (II) complex with 1-(3-chloro-4-fluorophenyl)-3-(4-chloro-3-nitrophenyl)thiourea], the MIC in [1], in [2], in [4], in experiment [5], in experiment [6] and in experiment [7] was 4 µg/mL in each case. The MIC in experiment [8] stood at 8 µg/mL; in experiment [9], 8 µg/mL; in [10], 4 µg/mL; in [11], 4 µg/mL. This compound also registered an IC50 in [3] of 19.2 ± 1.1 µM.

As to `O=[N+]([O-])c1cc([N+]2=C(Nc3ccc(Cl)c(Cl)c3)[S][Cu-2]23[S]C(Nc2ccc(Cl)c(Cl)c2)=[N+]3c2ccc(Cl)c([N+](=O)[O-])c2)ccc1Cl` [Compound 5, Copper (II) complex with 1-(4-chloro-3-nitrophenyl)-3-(3,4-dichlorophenyl)thiourea], the minimum inhibitory concentration (MIC) in experiment [1], in experiment [2], in [4], in [5], in [6] and in experiment [7] was 32 µg/mL each time. For the same compound, the MIC in experiment [8] came out at 32 µg/mL; in experiment [9] it was 16 µg/mL; in experiment [10], 32 µg/mL; in experiment [11] it was 32 µg/mL. For the same compound, the IC50 in experiment [3] is 20.6 ± 2.1 µM.

Regarding `O=[N+]([O-])c1cc(NC2=[N+](c3ccc(Cl)c([N+](=O)[O-])c3)[Cu-2]3([S]2)[S]C(Nc2ccc(Cl)c([N+](=O)[O-])c2)=[N+]3c2ccc(Cl)c([N+](=O)[O-])c2)ccc1Cl` [Compound 6, Copper (II) complex with 1,3-bis(4-chloro-3-nitrophenyl)thiourea], the MIC in experiment [1], in [2], in [4], in experiment [5], in experiment [6] and in experiment [7] was 8 µg/mL in each case. The MIC in experiment [8], in experiment [9], in experiment [10] and in experiment [11] was 64 µg/mL in each case. In experiment [3], this compound yielded an IC50 of 26.8 ± 2.3 µM.

With `O=[N+]([O-])c1cc([N+]2=C(Nc3ccccc3F)[S][Cu-2]23[S]C(Nc2ccccc2F)=[N+]3c2ccc(Cl)c([N+](=O)[O-])c2)ccc1Cl` [Compound 7, Copper (II) complex with 1-(2-fluorophenyl)-3-(4-chloro-3-nitrophenyl)thiourea], the MIC in [1], in experiment [2], in experiment [4], in [5], in experiment [6] and in [7] was 32 µg/mL in each case. In addition, the MIC in experiment [8], in experiment [9], in experiment [10] and in experiment [11] was 8 µg/mL throughout. In [3], this compound returned an IC50 of 15.5 ± 2.6 µM.

Turning to `O=[N+]([O-])c1cc([N+]2=C(Nc3ccc(I)cc3)[S][Cu-2]23[S]C(Nc2ccc(I)cc2)=[N+]3c2ccc(Cl)c([N+](=O)[O-])c2)ccc1Cl` [Compound 8, Copper (II) complex with 1-(4-iodophenyl)-3-(4-chloro-3-nitrophenyl)thiourea], the MIC in experiment [1] worked out at 4 µg/mL; in [2] it was 8 µg/mL; in experiment [4], 4 µg/mL; in experiment [5] it was 4 µg/mL; in experiment [6], 4 µg/mL; in [7] it was 4 µg/mL. Further, the MIC stood at 8 µg/mL in [8], 8 µg/mL in [9], 4 µg/mL in experiment [10] and 8 µg/mL in experiment [11]. The compound further registered a half-maximal inhibitory concentration (IC50) in experiment [3] of 3.9 ± 0.8 µM.
